Key:
[1] = system: granuloma vasculature; experiment: Microscopic evaluation of vasculature in day 6 granulomas; assay type: in vivo; settings: treated versus untreated mice
Text: Angiogenesis in the granuloma was microscopically evaluated. The vasculature of day 6 granulomas from both untreated and compound I treated mice was examined. […] In fact, there was a almost no fine capillaries visible, only a few larger vessels.

[2] = system: TNF-α; experiment: TNF-α levels in granuloma tissue homogenates by ELISA; assay type: in vivo, mice; settings: 30 mg/kg orally twice a day; day 7
Description: (§1) The levels of these cytokines over the course to granuloma development were measured to determine if the modulation of their expression by the compound correlated with angiogenesis. Cytokine levels were measured by ELISA using homogenates of granuloma tissue. TNF-α levels rose sharply, peaking at day 7 and dropping back down to moderate levels by day 14 (FIG. 2). […] Thus, the ability of the compound to block the sharp rise in TNF-α and IL-1β between days 5 and 7 correlated well with the ability of the compound to prevent the increase in vascular index that occurs over the same time points.
(§2) Tissue extracts were made by homogenizing granulomas in 0.5 ml 5 mM KH2PO4/0.1 gm wet tissue. IL-1β levels were determined using a Cytoscreen Immunoassay Kit (catalog #KMC 0012) from BioSource International, Camarillo, Calif. TNF-α levels were determined using the following assay: plates were coated with hamster anti-murine TNF-α antibody (Genzyme, Cambridge, Mass.), for 2 hours at 37° C., washed and blocked with a casein-BSA solution (5 gram/L for each) for 1 hour at 37° C., the samples were added and incubated at 4° C. overnight. […] The reaction was terminated with 25 ul 0.1M NaF per well, the O.D. read at 460 nm. Sample values for both ELISAs are calculated using DeltaSoft ELISA analysis software (Biomettalics Inc., Princeton, N.J.).

[3] = system: IL-1β; experiment: IL-1β levels in granuloma tissue homogenates by ELISA; assay type: in vivo, mice; settings: 30 mg/kg orally twice a day; peak at day 7
Description: as §1, §2

[4] = system: granuloma size (dry weight); experiment: Murine air pouch granuloma model: granuloma size by dry weight; assay type: in vivo, mice; settings: for effect on granuloma size as measured by dry weight: day 6 granuloma
Text: (§3) The murine airpouch granuloma model of chronic inflammation (Kimura et al., 1985, J. Pharmacobio-Dyn., 8:393-400; Colville-Nash et al.,1995, J. Pharm. and Exp. Ther., 274:1463-1472) whose disclosure is incorporated herein by reference in its entirety, is characterized by inflammatory cell influx, fibrous tissue proliferation and intense angiogenesis. […] In addition, angiogenesis can be accurately quantitated by a vascular casting method.
(§4) Murine air pouch granuloma model
(§5) Day-1, mice are anesthetized using Aerrane (isoflurane) gas (5%), after which 3mls of air is injected into the dorsal subcutaneous tissue using a 27 g needle. Mice are allowed to recover.
(§6) Day 0, mice are again anesthetized using Aerrane, once anesthetized 0.5 ml of Freunds complete adjuvant with 0.1% v/v croton oil is injected into the air pouch formed on Day-1. The animals also begin their dosing regime (number of days dependent upon study) with the animals typically receiving compound in 0.2 ml N,N, Dimethyl Acetoacetamide(DMA)(Sigma, St. Louis, Mo.)/Cremephor El (Sigma, St. Louis, Mo.)/saline (10/10/80) or other appropriate vehicle. The animals are allowed to recover and all subsequent dosing is performed on the animals in the absence of anesthetics.
(§7) Days 1-5, animals are dosed according to schedule.
Louis, Mo.)/gelatin (5%)(Sigma, St. Louis, Mo.) solution. […]
When the granuloma is removed it is weighed and then dried for 3 days at 45 C and reweighed. The dried tissue is then digested in 0.9 ml of a 0.05M phosphate buffer pH 7.0 containing 12 U/ml^−1 papain (Sigma, St. Louis, Mo.) and 0.33 g/L^−1 N-acetyl-1-Cysteine (Sigma, St. Louis, Mo.) at 57 C for 3 days. After 3 days digestion the carmine red is solubilized by the addition of 0.1 ml 5 mM NaOH. Samples are centrifuged and then filtered using 0.2 um acrodiscs. The carmine content is then determined against a carmine red standard curve (0.5 to 2 mg/ml) generated in extracted tissue from non carmine treated animals and read at 490 nm. Sample and standard values are determined using DeltaSoft Elisa analysis software (Biometallics Inc., Princeton, N.J.). […]

[5] = system: angiogenesis in granuloma (vascular index); experiment: Murine air pouch granuloma model: vascular index by carmine vascular cast; assay type: in vivo, mice; settings: for maximum reduction in vascular index: Compound I at 50 mg.kg, bid, i.p., versus vehicle control
Text: as §3, §4, §5, §6, §7
[…] Louis, Mo.)/gelatin (5%)(Sigma, St. Louis, Mo.) solution. The animals are then sacrificed by lethal dose of anesthesia and chilled at 4 C for 2 hours prior to the removal of the granuloma tissue.
When the granuloma is removed it is weighed and then dried for 3 days at 45 C and reweighed. The dried tissue is then digested in 0.9 ml of a 0.05M phosphate buffer pH 7.0 containing 12 U/ml^−1 papain (Sigma, St. Louis, Mo.) and 0.33 g/L^−1 N-acetyl-1-Cysteine (Sigma, St. Louis, Mo.) at 57 C for 3 days. After 3 days digestion the carmine red is solubilized by the addition of 0.1 ml 5 mM NaOH. Samples are centrifuged and then filtered using 0.2 um acrodiscs. The carmine content is then determined against a carmine red standard curve (0.5 to 2 mg/ml) generated in extracted tissue from non carmine treated animals and read at 490 nm. Sample and standard values are determined using DeltaSoft Elisa analysis software (Biometallics Inc., Princeton, N.J.). The carmine content is then used to determine the vascular indexes for the various treatments, vascular index being the mg carmine dye/gm dry tissue.

Nc1nccc(-c2c(-c3ccc(F)cc3)ncn2C2CCNCC2)n1 [Compound I, 1-Piperidine-4-(4-fluorophenyl)-5-(2-aminopyrimidin-4-yl)imidazole]
vasculature of granuloma, microscopic evaluation [1]: striking reduction in the vasculature | TNF-α levels in granuloma [2]: greatly reduced TNF-α levels | IL-1β expression in granuloma [3]: effectively blocked the increased IL-1β expression | granuloma size over time course ([4]; 30 mg/kg orally twice a day from day 0, days 3, 5, 7 and 14): unaffected by the compound | effect on granuloma size as measured by dry weight [4]: Neither Compound I nor medroxyprogesterone had an effect | vascular index (VI) compared to control at day 3 ([5]; 30 mg/kg orally twice a day from day 0, day 3): did not cause a significant reduction in VI | vascular index (VI) compared to control at days 5, 7 and 14 ([5]; 30 mg/kg orally twice a day from day 0, days 5, 7 and 14): lowered significantly | decrease in the vascular index (in words) ([5]; day 6 granuloma, dosing from induction): significant and dose dependent decrease | maximum reduction in vascular index ([5]; day 6 granuloma): 44%

medroxyprogesterone [reference compound]
effect on granuloma size as measured by dry weight [4]: Neither Compound I nor medroxyprogesterone had an effect | maximum reduction in vascular index ([5]; day 6 granuloma): 50%
